Test system: acetylated tubulin (Lys40) in HeLa cells
Experiment: Acetylated α-tubulin measurement in vitro (immunocytochemistry)
Format: cell-based
Details: Homo sapiens, 6 hours incubation, acetylated tubulin (Lys40) by immunocytochemistry, read-out: IC50 (Tubulin deacetylation)
Description: HeLa cells were cultured in UltraCulture serum-free medium (Lonza) supplemented with 2 mM glutamine (Lonza). Assays were performed at 96-well or 384-well format, differences in assay protocols are detailed in Table 6. Cells per well were plated and incubated overnight at 37° C. overnight in a humidified atmosphere containing 5% CO2. Cell density and seeding volumes are detailed in Table 6. Compounds (dissolved in 100% DMSO) or DMSO (vehicle) were added manually by diluting them in culture medium at 10× final assay concentration and adding 10 μL to cells (96-well protocol). Alternatively, 50 nL compound was added directly to the cell culture using the Echo650 (Labcyte) (384-well protocol). In this assay, the final assay concentration of DMSO is 0.1%-0.4%. Trichostatin A (TSA) was used as a positive control. Cells were incubated with compounds at 37° C. in a humidified atmosphere containing 5% CO2 for 6 hours. Levels of acetylated tubulin (Lys40) were assessed by immunocytochemistry using target-specific antibodies. Cells were fixed with 4% PFA at RT as detailed in Table 6. After 2-3 wash steps with PBS, cells were permeabilized with 0.5% Triton in PBS at RT for 10 minutes followed by 1-2 washes with PBS. To avoid non-specific antibody staining, cells were blocked with 3% BSA in PBS at room temperature for 1 hour. […] Cells were washed 2-3 times with PBS and labelled for 1 h at RT with goat anti-mouse conjugated with Alexa 647 (Thermofisher) and goat anti-rabbit conjugated with Alexa 555 (Thermofisher) secondary antibodies, diluted in 1% BSA to a final concentration of 1:1000. Simultaneously, nuclei were stained with 1:10000-1:15000 Hoechst (Thermofisher). Incubation time and temperature of the primary antibodies are detailed in Table 6. Cells were washed 2-3 times with PBS and they were imaged with the Operetta CLS or Opera Phenix (PerkinElmer). Imaging is further detailed in Table 6. For imaging analysis, the Harmony analysis software (PerkinElmer) was used. Cytoplasmic (defined by total α-tubulin staining) intensities per well were used for α-tubulin (acetylated and total) quantification. Intensities were measured per cell and then averaged per well. Mean intensity levels of acetylated tubulin were normalized to the mean intensity levels of total tubulin. The changes in acetylated tubulin were normalized for each plate using GraphPad Prism software: tubulin acetylation in vehicle (DMSO)-treated cells were set to 0% while tubulin acetylation in TSA-treated cells were set to 100%. EC50 values were calculated using the log(inhibitor) vs. response—Variable slope (four parameters) nonlinear regression in GraphPad Prism software.

SMILES | IC50 [nM]
COc1ccc2nc(C)nc(SCC(=O)c3ccc(CNC(=O)C(C)(C)C)s3)c2c1 [Example 17, N-((5-(2-((6-methoxy-2-methylquinazolin-4-yl)thio)acetyl)thiophen-2-yl)methyl)pivalamide] | 500 to 1000
Cn1cc2c(SCC(=O)c3ccc(CNC(=O)C4CC4)s3)nc(C(F)(F)F)nc2n1 [Example 41, N-((5-(2-((2-methyl-6-(trifluoromethyl)-2H-pyrazolo[3,4-d]pyrimidin-4-yl)thio)acetyl)thiophen-2-yl)methyl)cyclopropanecarboxamide] | 1000 to 3330
O=C(CO)NCc1ccc(C(=O)CSc2nc(C(F)(F)F)nc3cccnc23)s1 [Example 152, 2-hydroxy-N-((5-(2-((2-(trifluoromethyl)pyrido[3,2-d]pyrimidin-4-yl)thio)acetyl)thiophen-2-yl)methyl)acetamide] | ≤ 100
Cc1nc(SCC(=O)c2ccc(CNC(=O)CO)s2)c2cc(OC(F)(F)F)ccc2n1 [Example 126, 2-hydroxy-N-((5-(2-((2-methyl-6-(trifluoromethoxy)quinazolin-4-yl)thio)acetyl)thiophen-2-yl)methyl)acetamide] | ≤ 100
CN(C)c1nc(SCC(=O)c2ccc(CNC(=O)C(C)(C)C)s2)c2ccccc2n1 [Example 16, N-((5-(2-((2-(dimethylamino)quinazolin-4-yl)thio)acetyl)thiophen-2-yl)methyl)pivalamide] | 1000 to 3330
CCn1cc2c(SCC(=O)c3ccc(CNC(=O)CO)s3)nc(C(F)(F)F)nc2n1 [Example 135, N-((5-(2-((2-ethyl-6-(trifluoromethyl)-2H-pyrazolo[3,4-d]pyrimidin-4-yl)thio)acetyl)thiophen-2-yl)methyl)-2-hydroxyacetamide] | ≤ 100
COc1ccc2nc(C)nc(SCC(=O)c3ccc(CNC(=O)C4(O)CC4)s3)c2c1 [Example 50, 1-hydroxy-N-((5-(2-((6-methoxy-2-methylquinazolin-4-yl)thio)acetyl)thiophen-2-yl)methyl)cyclopropane-1-carboxamide] | 100 to 500
O=C(CO)NCc1ccc(C(=O)CSc2nc(C(F)(F)F)nc3ccc(N4CCOCC4)cc23)s1 [Example 63] | 100 to 500
O=C(CO)NCc1ccc(C(=O)CSc2nc(C(F)(F)F)nc3ncccc23)s1 [Example 113, 2-hydroxy-N-((5-(2-((2-(trifluoromethyl)pyrido[2,3-d]pyrimidin-4-yl)thio)acetyl)thiophen-2-yl)methyl)acetamide] | ≤ 100
Cc1nc(SCC(=O)c2ccc(CNC(=O)CO)s2)c2cc(N3CCCOCC3)ccc2n1 [Example 83, 2-hydroxy-N-((5-(2-((2-methyl-6-(1,4-oxazepan-4-yl)quinazolin-4-yl)thio)acetyl)thiophen-2-yl)methyl)acetamide] | ≤ 100
COc1ccc2nc(C)nc(SCC(=O)c3ccc(CNC(=O)C4CC4(F)F)s3)c2c1 (stereo not drawn) [Example 39, 2,2-difluoro-N-((5-(2-((6-methoxy-2-methylquinazolin-4-yl)thio)acetyl)thiophen-2-yl)methyl)cyclopropane-1-carboxamide] | 500 to 1000
COc1ccc2nc(C)nc(SCC(=O)c3ccc(CNC(=O)[C@H](C)O)s3)c2c1 [Example 185, (S)-2-hydroxy-N-((5-(2-((6-methoxy-2-methylquinazolin-4-yl)thio)acetyl)thiophen-2-yl)methyl)propanamide] | ≤ 100
O=C(CSc1nc(C(F)(F)F)nc2ncccc12)c1ccc(CNS(=O)(=O)C2CC2)s1 [Example 122, N-((5-(2-((2-(trifluoromethyl)pyrido[2,3-d]pyrimidin-4-yl)thio)acetyl)thiophen-2-yl)methyl)cyclopropanesulfonamide] | 100 to 500
COc1cc(F)c2nc(C)nc(SCC(=O)c3ccc(CNC(=O)CO)s3)c2c1 [Example 108, N-((5-(2-((8-fluoro-6-methoxy-2-methylquinazolin-4-yl)thio)acetyl)thiophen-2-yl)methyl)-2-hydroxyacetamide] | 100 to 500
Cc1nc(SCC(=O)c2ccc(CNC(=O)CO)s2)c2cc(N3CCCCC3)ccc2n1 [Example 82, 2-hydroxy-N-((5-(2-((2-methyl-6-(piperidin-1-yl)quinazolin-4-yl)thio)acetyl)thiophen-2-yl)methyl)acetamide] | ≤ 100
Cc1nc(SCC(=O)c2ccc(CNC(=O)C(C)(C)C)s2)c2ncccc2n1 [Example 18, N-((5-(2-((2-methylpyrido[3,2-d]pyrimidin-4-yl)thio)acetyl)thiophen-2-yl)methyl)pivalamide] | 1000 to 3330
Cc1nc(SCC(=O)c2ccc(CNS(C)(=O)=O)s2)c2ccccc2n1 [Example 97, N-((5-(2-((2-methylquinazolin-4-yl)thio)acetyl)thiophen-2-yl)methyl)methanesulfonamide] | 1000 to 3330

Now from value to compound:

IC50 [nM] | SMILES
≤ 100 | O=C(CSc1nc2nc(C(F)(F)F)ccc2o1)c1ccc(CNC(=O)C2(O)CC2)s1 [Example 45, 1-hydroxy-N-((5-(2-((5-(trifluoromethyl)oxazolo[4,5-b]157yrrolid-2-yl)thio)acetyl)thiophen-2-yl)methyl)cyclopropane-1-carboxamide]
100 to 500 | COc1ccc2nc(C(F)(F)F)nc(SCC(=O)c3ccc(CNC(=O)CO)s3)c2c1 [Example 80, 2-hydroxy-N-((5-(2-((6-methoxy-2-(trifluoromethyl)quinazolin-4-yl)thio)acetyl)thiophen-2-yl)methyl)acetamide]
500 to 1000 | CS(=O)(=O)N1CCC(c2ccc(C(=O)CSc3nc(C(F)(F)F)nc4ccccc34)s2)C1 (stereo not drawn) [Example 95, 1-(5-(1-(methylsulfonyl)161yrrolidine-3-yl)thiophen-2-yl)-2-((2-(trifluoromethyl)quinazolin-4-yl)thio)ethanone]
> 3330 | Cc1nc(SCC(=O)c2ccc(CNC(=O)C(C)(C)C)s2)c2cnn(C)c2n1 [Example 5, N-((5-(2-((1,6-dimethyl-1H-pyrazolo[3,4-d]pyrimidin-4-yl)thio)acetyl)thiophen-2-yl)methyl)pivalamide]
100 to 500 | Cc1nc(SCC(=O)c2ccc(CNC(=O)CO)s2)c2cc(N3CCOCC3)ccc2n1 [Example 81, 2-hydroxy-N-((5-(2-((2-methyl-6-morpholinoquinazolin-4-yl)thio)acetyl)thiophen-2-yl)methyl)acetamide]
100 to 500 | O=C(CO)NCc1ccc(C(=O)CSc2nccn3cncc23)s1 [Example 181, 2-hydroxy-N-((5-(2-(imidazo[1,5-a]pyrazin-8-ylthio)acetyl)thiophen-2-yl)methyl)acetamide]
100 to 500 | Cc1nc(SCC(=O)c2ccc(CNC(=O)CO)s2)c2cc(Cl)c(F)cc2n1 [Example 73, N-((5-(2-((6-chloro-7-fluoro-2-methylquinazolin-4-yl)thio)acetyl)thiophen-2-yl)methyl)-2-hydroxyacetamide]
≤ 100 | CCOc1cc2c(SCC(=O)c3ccc(CNC(=O)CO)s3)nc(C)nc2cn1 [Example 145, N-((5-(2-((6-ethoxy-2-methylpyrido[3,4-d]pyrimidin-4-yl)thio)acetyl)thiophen-2-yl)methyl)-2-hydroxyacetamide]
100 to 500 | COc1ccc2c(SCC(=O)c3ccc(CNC(=O)CO)s3)nc(C)nc2c1 [Example 70, 2-hydroxy-N-((5-(2-((7-methoxy-2-methylquinazolin-4-yl)thio)acetyl)thiophen-2-yl)methyl)acetamide]
500 to 1000 | Cc1ccc2oc(SCC(=O)c3ccc(CNC(=O)C(C)(C)C)s3)nc2n1 [Example 23, N-((5-(2-((5-methyloxazolo[4,5-b]pyridine-2-yl)thio)acetyl)thiophen-2-yl)methyl)pivalamide]
100 to 500 | Cc1nc(SCC(=O)c2ccc(CNC(=O)CO)s2)c2cc(NCC3CC3)ccc2n1 [Example 78, N-((5-(2-((6-((cyclopropylmethyl)amino)-2-methylquinazolin-4-yl)thio)acetyl)thiophen-2-yl)methyl)-2-hydroxyacetamide]
100 to 500 | CNCC(=O)NCc1ccc(C(=O)CSc2nc(C)nc3ccc(OC)cc23)s1 [Example 183, N-((5-(2-((6-methoxy-2-methylquinazolin-4-yl)thio)acetyl)thiophen-2-yl)methyl)-2-(methylamino)acetamide]
≤ 100 | CCOc1ccc2nc(C)nc(SCC(=O)c3ccc(CNC(=O)CO)s3)c2c1 [Example 144, N-((5-(2-((6-ethoxy-2-methylquinazolin-4-yl)thio)acetyl)thiophen-2-yl)methyl)-2-hydroxyacetamide]
